Test results taken from patent US11267811B2, “Small molecule inhibitors of galectin-3” (BRISTOL-MYERS SQUIBB COMPANY, priority 2017, dated 2022).
Where two headings read alike, the source gives them in different places.

Biological target: His-tagged recombinant human Gal-3 (hGal-3) (Homo sapiens (Human), UniProt P17931)
Experiment: Gal-3 HTRF assay (His-tagged hGal-3 binding to B-ASF);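 also: compounds preincubated 30 min with hGal-3, then 1 h with B-ASF, detection via terbium anti-His antibody and streptavidin d2. Control with B-ASF counts as full signal, omitting B-ASF as background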
[1] = HTRF, hGal-3 15 nM, B-ASF 15 nM, read-out: hGal-3 IC50

His-tagged recombinant human Gal-3 (hGal-3), sequence (P17931 whole entry): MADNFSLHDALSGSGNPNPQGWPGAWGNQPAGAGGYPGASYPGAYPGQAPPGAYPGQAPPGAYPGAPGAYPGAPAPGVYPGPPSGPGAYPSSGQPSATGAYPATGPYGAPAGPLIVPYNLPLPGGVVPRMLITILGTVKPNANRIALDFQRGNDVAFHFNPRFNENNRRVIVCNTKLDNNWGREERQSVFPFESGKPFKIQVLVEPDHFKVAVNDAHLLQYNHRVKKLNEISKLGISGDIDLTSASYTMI

IC50 [1] [nM]	SMILES	also measured
210	OC[C@H]1O[C@@H](c2nncn2-c2ccccc2)[C@H](O)[C@@H](n2cc(-c3cc(F)c(F)c(F)c3)nn2)[C@H]1O [Example 73, (2R,3R,4R,5R,6S)-2-(hydroxymethyl)-6-(4-phenyl-4H-1,2,4-triazol-3-yl)-4-(4-(3,4,5-trifluorophenyl)-1H-1,2,3-triazol-1-yl)tetrahydro-2H-pyran-3,5-diol]	
330	Cc1nc2ccc(-n3cnnc3[C@@H]3O[C@H](CO)[C@H](O)[C@H](n4cc(-c5cc(F)c(F)c(F)c5)nn4)[C@H]3O)cc2[nH]1 [Example 160]	
1160	CNC(=O)c1cn([C@H]2[C@@H](O)[C@@H](CO)O[C@@H](c3ncnn3-c3ccc4nc(C)sc4c3)[C@@H]2O)nn1 [Example 195]	
180	CO[C@@H]1[C@@H](n2cc(-c3cc(F)c(F)c(F)c3)nn2)[C@@H](O)[C@@H](CO)O[C@H]1c1ncnn1-c1ccc(Cl)c(Cl)c1 [Example 190]	
640	OC[C@H]1O[C@@H](n2nncc2-c2ccc3[nH]ncc3c2)[C@H](O)[C@@H](n2cc(-c3cc(F)c(F)c(F)c3)nn2)[C@H]1O [Example 5]	
120	OC[C@H]1O[C@@H](c2ncnn2-c2ccc3nc(N4CCOCC4)sc3c2)[C@H](O)[C@@H](n2cc(-c3cc(F)c(F)c(F)c3)nn2)[C@H]1O [Example 50]	
90	Cc1nc([C@@H]2O[C@H](CO)[C@H](O)[C@H](n3cc(-c4cc(F)c(F)c(F)c4)nn3)[C@H]2O)n(-c2cc(Cl)ccc2C#N)n1 [Example 64]	
60	Cc1nc2ccc(-n3ncnc3[C@@H]3O[C@H](CO)[C@H](O)[C@H](n4cc(-c5cc(F)c(F)c(F)c5)nn4)[C@H]3O)cc2s1 [Example 45]	
	Cc1nc2ccc(-n3c([C@@H]4O[C@H](CO)[C@H](O)[C@H](n5cc(-c6ccc(Br)c(F)c6)nn5)[C@H]4O)nnc3C(F)(F)F)cc2s1 [Example 315]	IC50 (read-out: hGal3 IC50): 980 nM
	Cc1nc2ccc(-n3c(C)nnc3[C@@H]3O[C@H](CO)[C@H](O)[C@H](n4cc(-c5cc(F)c(Cl)c(F)c5)nn4)[C@H]3O)cc2s1 [Example 306]	IC50 (read-out: hGal3 IC50): 35 nM
90	Cc1nc([C@H]2C[C@@H](n3cc(-c4cc(F)c(F)c(F)c4)nn3)[C@@H](O)[C@@H](CO)O2)n(-c2cc(Cl)ccc2C)n1 [Example 184]	
170	COc1ccc(-n2cnnc2[C@@H]2O[C@H](CO)[C@H](O)[C@H](n3cc(-c4cc(F)c(F)c(F)c4)nn3)[C@H]2O)cc1OC [Example 79]	
	Cc1nc([C@@H]2O[C@H](CO)[C@H](O)[C@H](n3cc(-c4ccc(Br)c(F)c4)nn3)[C@H]2O)n(-c2cc(Cl)cc3ncccc23)n1 [Example A17]	IC50 (read-out: hGal IC50): 82 nM
210	OC[C@H]1O[C@@H](c2ncnn2-c2cc(F)cc(F)c2)[C@H](O)[C@@H](n2cc(-c3cc(F)c(F)c(F)c3)nn2)[C@H]1O [Example 37]	
80	Cc1nc2cc(F)c(-n3cnnc3[C@@H]3O[C@H](CO)[C@H](O)[C@H](n4cc(-c5cc(F)c(F)c(F)c5)nn4)[C@H]3O)cc2s1 [Example 137]	
	Cc1nnc([C@@H]2O[C@H](CO)[C@H](O)[C@H](n3cc(-c4cc(F)c(Br)c(F)c4)nn3)[C@H]2O)n1-c1cc(Cl)ccc1C(F)(F)F [Example 313]	IC50 (read-out: hGal3 IC50): 8.7 nM
670	NS(=O)(=O)c1ccc(-n2cnnc2[C@@H]2O[C@H](CO)[C@H](O)[C@H](n3cc(-c4cc(F)c(F)c(F)c4)nn3)[C@H]2O)cc1 [Example 116]	
170	Cc1nc2ccc(-n3nc(C(C)(C)O)nc3[C@H]3C[C@@H](n4cc(-c5cc(F)c(F)c(F)c5)nn4)[C@@H](O)[C@@H](CO)O3)cc2s1 [Example 270, (2R,3R,4R,6R)-2-(hydroxymethyl)-6-(3-(2-hydroxypropan-2-yl)-1-(2-methylbenzo[d]thiazol-6-yl)-1H-1,2,4-triazol-5-yl)-4-(4-(3,4,5-trifluorophenyl)-1H-1,2,3-triazol-1-yl)tetrahydro-2H-pyran-3-ol]	
330	Cc1nc2ccc(-n3ncnc3[C@@H]3O[C@H](CO)[C@H](O)[C@H](n4cc(-c5ccc(F)cc5)nn4)[C@H]3O)cc2s1 [Example 224, (2R,3R,4R,5R,6S)-4-(4-(4-fluorophenyl)-1H-1,2,3-triazol-1-yl)-2-(hydroxymethyl)-6-(1-(2-methylbenzo[d]thiazol-6-yl)-1H-1,2,4-triazol-5-yl)tetrahydro-2H-pyran-3,5-diol]	
470	OC[C@H]1O[C@@H](c2nncn2-c2cccc(-c3ccccc3)c2)[C@H](O)[C@@H](n2cc(-c3cc(F)c(F)c(F)c3)nn2)[C@H]1O [Example 100]	
120	OC[C@H]1O[C@@H](c2nncn2-c2ccc3c(c2)OCO3)[C@H](O)[C@@H](n2cc(-c3cc(F)c(F)c(F)c3)nn2)[C@H]1O [Example 76]	
	COc1ccc(Cl)cc1-n1nc(C)nc1[C@@H]1O[C@H](CO)[C@H](O)[C@H](n2cc(-c3ccc(Cl)c(F)c3)nn2)[C@H]1O [Example 251]	IC50 (read-out: hGal3 IC50): 80 nM
40	OC[C@H]1O[C@@H](c2ncnn2-c2ccc3ncsc3c2)[C@H](O)[C@@H](n2cc(-c3cc(F)c(F)c(F)c3)nn2)[C@H]1O [Example 46]	
140	Cc1nc([C@@H]2O[C@H](CO)[C@H](O)[C@H](n3cc(-c4cc(F)c(F)c(F)c4)nn3)[C@H]2O)n(-c2ccc3ncn(C)c3c2)n1 [Example 59]	

IC50 [1] [nM]	SMILES	also measured
	Cc1nc([C@@H]2O[C@H](CO)[C@H](O)[C@H](n3cc(-c4ccc5nccnc5c4)nn3)[C@H]2O)n(-c2cc(Cl)ccc2C(F)(F)F)n1 [Example A66]	IC50 (read-out: hGal IC50): 208 nM
83	CO[C@@H]1[C@@H](n2cc(-c3cc(F)c(F)c(F)c3)nn2)[C@@H](O)[C@@H](CO)O[C@H]1c1ncnn1-c1cccc(Cl)c1 [Example 54]	
380	COc1ccccc1-n1cnnc1[C@@H]1O[C@H](CO)[C@H](O)[C@H](n2cc(-c3cc(F)c(F)c(F)c3)nn2)[C@H]1O [Example 86]	
	Cc1nc([C@@H]2O[C@H](CO)[C@H](O)[C@H](n3cc(-c4ccc(Br)c(F)c4)nn3)[C@H]2O)n(-c2cc3sc(C)nc3cc2C(F)(F)F)n1 [Example A31]	IC50 (read-out: hGal IC50): 22 nM
	Cc1nc([C@@H]2O[C@H](CO)[C@H](O)[C@H](n3cc(-c4cc(F)c(Cl)c(F)c4)nn3)[C@H]2O)n(-c2cc(Cl)cc(F)c2Cl)n1 [Example A49]	IC50 (read-out: hGal IC50): 46 nM
	Cc1nc([C@@H]2O[C@H](CO)[C@H](O)[C@H](n3cc(-c4cc(F)c(Cl)c(Cl)c4)nn3)[C@H]2O)n(-c2ccc3ncsc3c2)n1 [Example A24]	IC50 (read-out: hGal IC50): 34 nM
	Cc1nc2ccc(-n3ncnc3[C@@H]3O[C@H](CO)[C@H](O)[C@H](n4cc(-c5ccc(Cl)c(F)c5)nn4)[C@H]3O)cc2s1 [Example 217]	IC50 (read-out: hGal3 IC50): 70 nM
3840	OC[C@H]1O[C@@H](c2ncnn2C2CCNCC2)[C@H](O)[C@@H](n2cc(-c3cc(F)c(F)c(F)c3)nn2)[C@H]1O [Example 172]	
	CO[C@@H]1[C@@H](n2cc(-c3cc(F)c(F)c(F)c3)nn2)[C@@H](O)[C@@H](CO)O[C@H]1c1nncn1-c1ccc(Cl)c(Cl)c1 [Ex 283]	IC50 (read-out: hGal3 IC50): 80 nM
902	OC[C@H]1O[C@@H](n2nncc2-c2ccccc2)C[C@@H](n2cc(-c3cc(F)c(F)c(F)c3)nn2)[C@H]1O [Example 17]	
	Cc1nc([C@@H]2O[C@H](CO)[C@H](O)[C@H](n3cc(-c4ccc5ncsc5c4)nn3)[C@H]2O)n(-c2cc(Cl)ccc2C(F)(F)F)n1 [Example A63]	IC50 (read-out: hGal IC50): 291 nM
	Cc1nc2ccc(-n3ncnc3[C@@H]3O[C@H](CO)[C@H](O)[C@H](n4cc(-c5cc(F)cc(Cl)c5)nn4)[C@H]3O)cc2s1 [Example 240]	IC50 (read-out: hGal3 IC50): 160 nM
	Cc1nc([C@@H]2O[C@H](CO)[C@H](O)[C@H](n3cc(-c4ccc(Cl)c(F)c4)nn3)[C@H]2O)n(-c2ccc3ncsc3c2)n1 [Example 256]	IC50 (read-out: hGal3 IC50): 80 nM
	Cc1nc([C@@H]2O[C@H](CO)[C@H](O)[C@H](n3cc(-c4cc(F)c(Br)c(F)c4)nn3)[C@H]2O)n(-c2ccc3ncsc3c2)n1 [Example A29]	IC50 (read-out: hGal IC50): 27 nM
20	Cc1nc([C@@H]2O[C@H](CO)[C@H](O)[C@H](n3cc(-c4cc(F)c(Cl)c(F)c4)nn3)[C@H]2O)n(-c2cc(Cl)ccc2C)n1 [Example 261]	
110	Cn1cnc2ccc(-n3ncnc3[C@@H]3O[C@H](CO)[C@H](O)[C@H](n4cc(-c5cc(F)c(F)c(F)c5)nn4)[C@H]3O)cc21 [Example 48]	
280	Cc1nc2ccc(-n3cnnc3[C@@H]3O[C@H](CO)[C@H](O)[C@H](n4cc(-c5cc(F)c(F)c(F)c5)nn4)[C@H]3O)cc2n1C [Example 169]	
50	Cc1nc2cc(C)c(-n3ncnc3[C@@H]3O[C@H](CO)[C@H](O)[C@H](n4cc(-c5cc(F)c(F)c(F)c5)nn4)[C@H]3O)cc2s1 [Example 49]	
	Cc1nc2ccc(-n3c([C@@H]4O[C@H](CO)[C@H](O)[C@H](n5cc(-c6cc(F)c(Br)c(F)c6)nn5)[C@H]4O)nnc3C(F)(F)F)cc2s1 [Example 314]	IC50 (read-out: hGal3 IC50): 57 nM
360	Cc1nc2ccc(-n3ncnc3[C@@H]3O[C@H](CO)[C@H](O)[C@H](n4cc(C(=O)NC5CCC5)nn4)[C@H]3O)cc2s1 [Example 199]	
1280	OC[C@H]1O[C@@H](c2nncn2Cc2cccs2)[C@H](O)[C@@H](n2cc(-c3cc(F)c(F)c(F)c3)nn2)[C@H]1O [Example 127]	
130	Cc1nc2ccc(-n3ncnc3[C@@H]3O[C@H](CO)[C@H](O)[C@H](n4cc(-c5cc(F)c(N6CCC(O)CC6)c(F)c5)nn4)[C@H]3O)cc2s1 [Example 241, (2R,3R,4R,5R,6S)-4-(4-(3,5-difluoro-4-(4-hydroxypiperidin-1-yl)phenyl)-1H-1,2,3-triazol-1-yl)-2-(hydroxymethyl)-6-(1-(2-methylbenzo[d]thiazol-6-yl)-1H-1,2,4-triazol-5-yl)tetrahydro-2H-pyran-3,5-diol]	
	Cc1nnc([C@@H]2O[C@H](CO)[C@H](O)[C@H](n3cc(-c4cc(F)c(Br)c(F)c4)nn3)[C@H]2O)n1-c1cc(Cl)cc2cccnc12 [Example 318]	IC50 (read-out: hGal3 IC50): 11 nM
445	OC[C@H]1O[C@@H](c2ccnn2-c2ccc(Cl)c(Cl)c2)[C@H](O)[C@@H](n2cc(-c3cc(F)c(F)c(F)c3)nn2)[C@H]1O [Example 285, (2S,3R,4R,5R,6R)-2-(1-(3,4-dichlorophenyl)-1H-pyrazol-5-yl)-6-(hydroxymethyl)-4-(4-(3,4,5-trifluorophenyl)-1H-1,2,3-triazol-1-yl)tetrahydro-2H-pyran-3,5-diol]	
